# In patent publication US8759098B2, “Method for cloning pluripotent stem cells” (Boston Biomedical Research Institute, Inc., priority 2009, dated 2014):
# Legend:
# Format in all cases: cell-based, mouse
# [1] = tested on: reprogramming genes (Oct4, Sox2, Klf4, Myc, Lin28) in Panstra-25 - Xn responsive; test: Micro-array expression of reprogramming gene mRNAs, Panstra-25
# From the text: (§1) Table 2. Micro-array expression levels for described iPSC reprogramming gene mRNAs in SACK-derived mouse pancreatic stem cell strains. […] Panstra-11 is a non-responsive strain.
# (§2) All the described induced pluripotent stem cell (iPSC) reprogramming genes are detected in two cell strains derived with the suppression of asymmetric cell kinetics (SACK)-agent xanthine (Xn). The SACK strains were derived from pancreatic islets of adult xanthine phosphoribosyl transferase (XPRT)-transgenic mice. The derivation of such strains requires both the XPRT-transgenic genotype and Xn.
# [2] = tested on: reprogramming genes (Oct4, Sox2, Klf4, Myc, Lin28) in Panstra-11-Xn Non-responsive; test: Micro-array expression of reprogramming gene mRNAs, Panstra-11
# From the text: as §1, §2
# [3] = tested on: SACK-responsive, Pdx1-positive Panstra-25 pancreatic stem cells; test: Gene-free iPSC reprogramming on STO feeders, colony phenotypes, Panstra-25; conditions: for Estimated gene-free iPSC colony formation efficiency, ES, AP+ (iPSC state) / Estimated gene-free iPSC colony formation efficiency, ES, AP− / Estimated gene-free iPSC colony formation efficiency, Fl, AP+ / Estimated gene-free iPSC colony formation efficiency, Fl, AP− / Phenotype ES, AP+ (iPSC state) of individual cell clones following expansion, clones/total / Phenotype ES, AP+ (iPSC state) of individual cell clones following expansion, percent / Phenotype ES, AP− of individual cell clones following expansion, clones/total / Phenotype ES, AP− of individual cell clones following expansion, percent / Phenotype Fl, AP+ of individual cell clones following expansion, clones/total / Phenotype Fl, AP+ of individual cell clones following expansion, percent / Phenotype Fl, AP− of individual cell clones following expansion, clones/total / Phenotype Fl, AP− of individual cell clones following expansion, percent: Panstra-25, 1 mM Xn
# Experimental: Each tested SACK-derived cell strain was cultured on STO cell feeder monolayers in control medium with 10% DFBS, dialyzed fetal bovine serum (DFBS) or either of two commercial media for culture of murine embryonic stem cells (ESCs) and for the culture of reprogrammed cells such as iPSCs. Each medium condition was evaluated with or without supplementation with 1 mM xanthine (Xn). P/S denotes routine use of the antibiotics penicillin and streptomycin.
# The method is an original pharmacological procedure for producing pluripotent stem cells. Cell strains derived in xanthine (Xn)-supplemented medium, by the method of suppression of asymmetric cell kinetics (SACK), were cultured in commercial media specified for the culture and/or production of pluripotent stem cells such as embryonic stem cells and iPSCs. Approximately 150,000 cells were plated on confluent STO cell feeders (i.e., mouse embryonic fibroblasts pre-treated with mitomycin C) in 10-cm culture dishes. In 2 weeks, iPSC-like cell colonies were detected.
# To establish clonal strains, single colonies were picked, cultured in individual wells, and expanded for further study and cryo-preservation. A high fraction of the derived cell clones have morphological and biochemical properties indicative of iPSC cells.
# Tissue-specific stem cells (e.g., Panstra-25 and Panstra-12 mouse pancreatic stem cell strains in the instant example) were cultured on mitomycin C-treated STO cell monolayers in commercial embryonic stem cell medium supplemented with the purine salvage base xanthine at 1 mM concentration (FIG. 4). Within 2-3 weeks of culture under otherwise standard conditions, cell colonies with embryonic stem cell-like morphology developed (FIG. 7B). These colonies were removed by mild trypsin treatment, transferred to individual cell culture wells prepared with STO cell feeders, and expanded in the respective embryonic stem cell culture medium supplemented with 1 mM xanthine (FIG. 5). The expanded cell clones expressed alkaline phosphatase (FIG. 8), a biochemical biomarker for the pluripotent phenotype of embryonic stem cells and iPSC cells. […] Xn supplementation increased the average production efficiency by as much as 3-fold (Table 6).
smiles,measurement,setting,value
"O=c1[nH]c(=O)c2[nH]cnc2[nH]1 [Xn, xanthine]",Klf4 expression (gene micro-array data),"[1]; Panstra-25, Xn",31.8
same,Lin28 expression (gene micro-array data),"[1]; Panstra-25, Xn",1.0
same,Myc expression (gene micro-array data),"[1]; Panstra-25, Xn",35.5
same,Oct4 expression (gene micro-array data),"[1]; Panstra-25, Xn",2.3
same,Sox2 expression (gene micro-array data),"[1]; Panstra-25, Xn",0.2
same,Klf4 and Myc mRNA expression in response to culture in Xn,"[1]; SACK-derived strains, Table 2",increased mRNA expression
same,Klf4 expression (gene micro-array data),[2],21.6
same,Lin28 expression (gene micro-array data),[2],0.9
same,Myc expression (gene micro-array data),[2],19.6
same,Oct4 expression (gene micro-array data),[2],2.6
same,Sox2 expression (gene micro-array data),[2],0.1
same,iPSC (gene-free iPSC reprogramming),"[3]; Panstra 25, SACK agent Xn",Yes
same,"Estimated gene-free iPSC colony formation efficiency, ES, AP+ (iPSC state)",[3]; DFBS,0.000%
same,"Estimated gene-free iPSC colony formation efficiency, ES, AP−",[3]; DFBS,0.000%
same,"Estimated gene-free iPSC colony formation efficiency, Fl, AP+",[3]; DFBS,0.000%
same,"Estimated gene-free iPSC colony formation efficiency, Fl, AP−",[3]; DFBS,0.059%
same,"Phenotype ES, AP+ (iPSC state) of individual cell clones following expansion, clones/total",[3]; DFBS,0/22
same,"Phenotype ES, AP+ (iPSC state) of individual cell clones following expansion, percent",[3]; DFBS,0%
same,"Phenotype ES, AP− of individual cell clones following expansion, clones/total",[3]; DFBS,0/22
same,"Phenotype ES, AP− of individual cell clones following expansion, percent",[3]; DFBS,0%
same,"Phenotype Fl, AP+ of individual cell clones following expansion, clones/total",[3]; DFBS,0/22
same,"Phenotype Fl, AP+ of individual cell clones following expansion, percent",[3]; DFBS,0%
same,"Phenotype Fl, AP− of individual cell clones following expansion, clones/total",[3]; DFBS,22/22
same,"Phenotype Fl, AP− of individual cell clones following expansion, percent",[3]; DFBS,100%
same,"Estimated gene-free iPSC colony formation efficiency, ES, AP+ (iPSC state)",[3]; KOSR,0.016%
same,"Estimated gene-free iPSC colony formation efficiency, ES, AP−",[3]; KOSR,0.037%
same,"Estimated gene-free iPSC colony formation efficiency, Fl, AP+",[3]; KOSR,0.000%
same,"Estimated gene-free iPSC colony formation efficiency, Fl, AP−",[3]; KOSR,0.000%
same,"Phenotype ES, AP+ (iPSC state) of individual cell clones following expansion, clones/total",[3]; KOSR,6/20
same,"Phenotype ES, AP+ (iPSC state) of individual cell clones following expansion, percent",[3]; KOSR,30%
same,"Phenotype ES, AP− of individual cell clones following expansion, clones/total",[3]; KOSR,14/20
same,"Phenotype ES, AP− of individual cell clones following expansion, percent",[3]; KOSR,70%
same,"Phenotype Fl, AP+ of individual cell clones following expansion, clones/total",[3]; KOSR,0/20
same,"Phenotype Fl, AP+ of individual cell clones following expansion, percent",[3]; KOSR,0%
same,"Phenotype Fl, AP− of individual cell clones following expansion, clones/total",[3]; KOSR,0/20
same,"Phenotype Fl, AP− of individual cell clones following expansion, percent",[3]; KOSR,0%
same,"Estimated gene-free iPSC colony formation efficiency, ES, AP+ (iPSC state)",[3]; hiFBS,0.008%
same,"Estimated gene-free iPSC colony formation efficiency, ES, AP−",[3]; hiFBS,0.027%
same,"Estimated gene-free iPSC colony formation efficiency, Fl, AP+",[3]; hiFBS,0.003%
same,"Estimated gene-free iPSC colony formation efficiency, Fl, AP−",[3]; hiFBS,0.013%
same,"Phenotype ES, AP+ (iPSC state) of individual cell clones following expansion, clones/total",[3]; hiFBS,3/19
same,"Phenotype ES, AP+ (iPSC state) of individual cell clones following expansion, percent",[3]; hiFBS,16%
same,"Phenotype ES, AP− of individual cell clones following expansion, clones/total",[3]; hiFBS,10/19
same,"Phenotype ES, AP− of individual cell clones following expansion, percent",[3]; hiFBS,53%
same,"Phenotype Fl, AP+ of individual cell clones following expansion, clones/total",[3]; hiFBS,1/19
same,"Phenotype Fl, AP+ of individual cell clones following expansion, percent",[3]; hiFBS,5%
same,"Phenotype Fl, AP− of individual cell clones following expansion, clones/total",[3]; hiFBS,5/19
